We go through two molecules from publication PMC9705314, “Characterization of a new potent and long-lasting single chain peptide agonist of RXFP1 in cells and in vivo translational models” (Scientific Reports, 2022).

A short description of data set [1]: Pharmacokinetics in Goettingen minipigs. Type of data set: in vivo, minipig. Particulars: for CL / t1/2 / AUCext / F / AUC / C0 / Vd / Cmax / Tmax: female Göttingen minipig; for CL / t1/2 / AUC / C0 / Vd / Cmax / Tmax: LC-MS; for CL / t1/2 / AUC / C0 / Vd / Cmax: non-compartmental analysis; for AUC / C0 / Vd / Cmax / Tmax: 1 mg/kg; for Vd: read-out: Vss. As to the method:
Goettingen minipigs (Ellegaard Göttingen Minipigs A/S, Soroe Landevej 302, DK-4261 Dalmose, Denmark) were dosed with the study peptide at a dose of 1 mg/kg IV and SC routes (0.1 mg/mL). Blood samples were collected from individual animals at the following time points: 0.083, 0.25, 0.5, 2, 4, 6, 8, 24, 48, 72, 96 and 168 h (IV route) and 0.25, 0.5, 2, 4, 6, 8, 24, 48, 72, 96 and 168 h (SC route). All samples, collected into K3-EDTA tubes, were centrifuged and plasma was harvested and stored at − 80 °C until analysis. Three hundred μL of 1% tri-fluoro acetic acid in acetonitrile containing 10 ng/mL irbesartan as internal standard were added to 30 μL of standard, QC and PK study samples to precipitate the plasma proteins. Each sample was vortexed and centrifuged, for 5 min, at 4000 rpm and at 4 °C. Two hundred and fifty microliters of supernatant were collected and evaporated under nitrogen at 37 °C in LoBIND 96 well plates. 150 µL of water/acetonitrile (90/10, v/v) were added to dissolve the evaporates and 10 µL of the extracted plasma samples were injected onto the column. Chromatographic separation was performed on a Thermo Vanquish (Thermo Scientific) chromatography system using a UPLC HSS T3, (50 mm × 2.1 mm I.D., 1.8 μm, Waters Corporation) with a flow rate of 0.600 mL/min at 40 °C and a two-solvent linear gradient system. Solvents A (water) and B (acetonitrile) contained both 0.1% formic acid. […] The Vanquish was coupled to an Orbitrap QExactive™ mass spectrometer (Thermo Scientific) in positive mode. Quantitation was performed in full scan. The optimized source parameters were as follows: ion spray voltage 3.8 kV, sheath gas flow 70 a.u., aux gas flow 10 a.u., aux T 300 °C, capillary T 250 °C, S-lens RF level 60%. Full MS parameters were as follows: mass range 150–2000, AGC target 1 × 10^6, max injection time 250 ms, resolution 70,000 (FWHM @ 200 m/z). Data processing was performed using Xcalibur 3.0 (Thermo Scientific). Ion current of the [M + 5H]5 + of the SA10SC-RLX was extracted with 5 ppm window for quantitation (814.47219 m/z). A calibration curve with 9 standard points was prepared freshly on the day of analysis by spiking appropriate amounts of an intermediate working standard solution into blank rat plasma and ranged from 10 to 4000 ng/mL (2.46–983 nM). Three QC samples, each at four concentration levels from […] to 3200 ng/mL (7.86–786 nM), were used for all analyses. Calibration curves were prepared by plotting the analyte to internal standard peak area ratio versus concentration. Calibration standards were fit by linear regression with 1/x^2 weighting. QC samples (n = 3) were used at six concentration levels. Accepted calibration curve contained minimum 7 concentration levels within ± 20% of nominal (± 25% at the Lower Limit of Quantitation). Accepted QCs were within ± 20% of nominal. PK parameters were calculated using a non-compartmental analysis with Phoenix WinNonLin version 6.4 software.

The next data set has as its target T1, hRXFP1 (S69P/F76V) (Homo sapiens, UniProt Q9HBX9, F76V/S69P).
T1 sequence (Q9HBX9 1-757 S69P/F76V): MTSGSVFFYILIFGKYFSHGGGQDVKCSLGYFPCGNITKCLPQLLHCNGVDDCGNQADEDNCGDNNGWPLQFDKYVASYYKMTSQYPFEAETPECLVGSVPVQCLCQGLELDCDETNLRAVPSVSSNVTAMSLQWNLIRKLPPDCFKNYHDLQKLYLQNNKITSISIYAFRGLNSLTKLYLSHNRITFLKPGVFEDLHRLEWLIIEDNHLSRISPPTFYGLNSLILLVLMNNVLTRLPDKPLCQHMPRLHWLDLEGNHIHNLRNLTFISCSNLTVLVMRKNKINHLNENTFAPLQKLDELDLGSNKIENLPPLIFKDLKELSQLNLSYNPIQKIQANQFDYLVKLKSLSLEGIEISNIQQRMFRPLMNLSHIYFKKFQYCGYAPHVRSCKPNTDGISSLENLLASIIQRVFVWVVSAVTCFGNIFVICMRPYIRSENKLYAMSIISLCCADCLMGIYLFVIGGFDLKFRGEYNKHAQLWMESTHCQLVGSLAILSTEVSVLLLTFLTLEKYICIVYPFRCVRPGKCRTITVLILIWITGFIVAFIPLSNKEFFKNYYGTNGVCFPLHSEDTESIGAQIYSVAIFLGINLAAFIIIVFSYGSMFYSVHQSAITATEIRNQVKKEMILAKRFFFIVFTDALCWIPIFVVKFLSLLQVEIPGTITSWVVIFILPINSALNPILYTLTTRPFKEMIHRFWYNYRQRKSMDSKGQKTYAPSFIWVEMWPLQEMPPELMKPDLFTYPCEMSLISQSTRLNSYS
The data set can be described thus: cAMP production in HEK cells expressing hRXFP1 (S69P/F76V). Conditions: hRXFP1 F76V-S69P dual mutant, n = 4 experiments in duplicate. Type of data set: cell-based. As to the method:
HEK cells were stably transduced with lentiviral constructs (Vectalys, MOI 20, batches rV2.1A1.5057 B, rV2.1A1.5056 B and rV2.1A1.5059 B) containing a bicistronic vectors encoding hRXFP1 (S69P) or hRXFP1 (F76V) or hRXFP1 (S69P/F76V) under the EF1 promoter followed by an internal ribosome entry site (IRES) elements to express the neomycin antibiotic resistance gene for selection with 500 μg/mL Geneticin (Invitrogen, #10131-019). Three days post transduction, HEK cells were grown in the presence of Genetecin. Positive individual clones were selected and amplified, and cAMP readout (nM) was used as described for other cell types at a cell density of 8000 cells/well.

The mark [2] stands for this setting: female, Göttingen, minipig, plasma, iv, IV 1 mg/kg, animal 1.
Setting [3] is: female, Göttingen, minipig, plasma, iv, IV 1 mg/kg, animal 2.
The mark [4] stands for this setting: female, Göttingen, minipig, plasma, sc, SC 1 mg/kg, animal 3.
The mark [5] stands for this setting: female, Göttingen, minipig, plasma, sc, SC 1 mg/kg, animal 4.

Where two headings read alike, the source gives them in different places. *1 amine or outer side, *2 acyl side, *3 side chain or, on linkers, in order; H or OH if unused. Where a SMILES comes first, the peptide text is derived from it. Side-chain parts run from the residue outwards. [ ]: non-standard residue; d: D form. The star is where a group is joined. γGlu = O=C(O)[C@H](CCC(=O)[*:2])N[*:1]; Stearoyl = CCCCCCCCCCCCCCCCCC(=O)*; Nle = CCCC[C@H](N)C(=O)O; AEEA = NCCOCCOCC(=O)O; Aib = CC(C)(N)C(=O)O

With `CCCCCCCCCCCCCCCCCC(=O)N[C@@H](CCC(=O)N[C@@H](CCC(=O)N[C@@H](CCC(=O)NCCOCCOCC(=O)NCCOCCOCC(=O)NCCOCCOCC(=O)NCCCC[C@H](NC(=O)[C@H](CCCCNC(C)=O)NC(=O)[C@H](CCCCN)NC(=O)[C@H](CCCNC(=N)N)NC(=O)C(C)(C)NC(=O)[C@H](CO)NC(=O)[C@H](Cc1c[nH]c2ccccc12)NC(=O)[C@@H](NC(=O)[C@H](CO)NC(=O)[C@H](CCCC)NC(=O)CNC(=O)[C@H](CCC(=O)O)NC(=O)C(C)(C)NC(=O)C(C)(C)NC(=O)[C@@H](NC(=O)[C@H](CCCCNC(C)=O)NC(=O)[C@H](C)NC(=O)[C@H](CCCNC(=N)N)NC(=O)[C@@H](NC(=O)[C@H](CCCCN)NC(=O)[C@H](CCC(=O)O)NC(=O)[C@H](CCCNC(=N)N)NC(=O)CNC(=O)[C@H](CCC(=O)O)NC(=O)[C@H](CC(C)C)NC(C)=O)C(C)C)[C@@H](C)CC)[C@@H](C)O)C(N)=O)C(=O)O)C(=O)O)C(=O)O` [SA10SC-RLX] (Ac-LEGREKVRAK(Ac)I[Aib][Aib]EG[Nle]STWS[Aib]RKK(Ac)K([AEEA-AEEA-AEEA-γGlu-γGlu-γGlu-Stearoyl])-NH2), the CL in data set [1] (IV 1 mg/kg, plasma, animal 1) stood at 0.130 mL/min/kg; in data set [1] (IV 1 mg/kg, plasma, animal 2) it was 0.151 mL/min/kg. Besides, the t1/2 in data set [1] (IV 1 mg/kg, plasma, animal 1) came out at 7.06 h; in data set [1] (IV 1 mg/kg, plasma, animal 2) it was 6.92 h. Also, the AUCext was found to be 0.462% in data set [1] (IV 1 mg/kg, plasma, animal 1); 0.479% in data set [1] (IV 1 mg/kg, plasma, animal 2); 3.16% in data set [1] (SC 1 mg/kg, plasma, animal 3); 1.83% in data set [1] (SC 1 mg/kg, plasma, animal 4). In addition, the F in data set [1] (SC 1 mg/kg vs IV 1 mg/kg, animal 3) was 81%; in data set [1] (SC 1 mg/kg vs IV 1 mg/kg, animal 4), 56%. Further, the AUC in data set [1] (setting [2]) was determined as 31.9 µM·h; in data set [1] (setting [3]), 27.1 µM·h; in data set [1] (setting [4]) it was 23.8 µM·h; in data set [1] (setting [5]), 16.6 µM·h. The C0 came out at 9360 nM in data set [1] (setting [2]) and 8570 nM in data set [1] (setting [3]). For the same molecule, the Vd in data set [1] (female, Göttingen, minipig, plasma, iv, IV 1 mg/kg, plasma, animal 1) came to 0.0439 L/kg; in data set [1] (female, Göttingen, minipig, plasma, iv, IV 1 mg/kg, plasma, animal 2), 0.0497 L/kg. Moreover, the Cmax in data set [1] (setting [4]) came out at 1420 nM; in data set [1] (setting [5]) it was 1450 nM. Besides, the results for the Tmax in data set [1] (setting [4]) and in data set [1] (setting [5]) were 6 h and 4 h, respectively. In addition, in data set [1] (female, Göttingen, minipig, plasma, minipigs, IV 1 mg/kg, n = 2), the clearance is 0.14 mL/min/kg. Besides, the bioavailability in data set [1] (female, Göttingen, minipig, plasma, minipigs, SC 1 mg/kg vs IV 1 mg/kg, read-out: bioavailability (ratio of scAUC/ivAUC)) is roughly 70%. For the same molecule, the level at time molar at 12 h in data set [1] (female, Göttingen, minipig, plasma, minipigs, SC 1 mg/kg, read-out: plasma concentration after 12 h) was roughly 1000 nM. Also, the apparent terminal half-life in data set [1] (minipigs, IV 1 mg/kg, n = 2) was 7 h.
Consider relaxin, for which the “cAMP response (efficacy)” value at hRXFP1 (S69P/F76V) is reported as “reduced in all RXFP1 mutants compared to the wild type construct”.
